Target: T1, FPR2 (Homo sapiens, UniProt P25090)
T1 construct: expressed in transfected cells; host or cells: CHO-Gα16 cells
T1 sequence (P25090 1-351): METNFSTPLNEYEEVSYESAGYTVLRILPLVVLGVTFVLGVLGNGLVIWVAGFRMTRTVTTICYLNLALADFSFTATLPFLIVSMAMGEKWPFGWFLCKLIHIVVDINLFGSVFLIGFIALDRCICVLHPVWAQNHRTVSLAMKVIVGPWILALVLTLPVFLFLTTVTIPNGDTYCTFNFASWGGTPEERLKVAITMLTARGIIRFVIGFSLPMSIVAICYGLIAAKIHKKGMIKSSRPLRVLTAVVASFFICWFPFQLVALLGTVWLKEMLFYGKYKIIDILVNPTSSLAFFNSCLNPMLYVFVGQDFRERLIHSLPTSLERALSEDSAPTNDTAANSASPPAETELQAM
Assay: compound-induced calcium activity on FLIPR Tetra in CHO-Gα16 cells stably expressing FPR2
Assay type: cell-based
Conditions: for Emax: efficacy value in brackets after EC50, read-out: FPR2 Gα16-CHO (% eff); for EC50: tested 0.61 to 10,000 nM
Protocol: CHO-Gα16 cells stably expressing FPR2 were cultured in (F12, 10% FBS, 1% PSA, 400 μg/ml geneticin and 50 μg/ml hygromycin) and HEK-Gqi5 cells stable expressing FPR1 were cultured in (DMEM high glucose, 10% FBS, 1% PSA, 400 μg/ml geneticin and 50 μg/ml hygromycin). In general, the day before the experiment, 18,000 cells/well were plated in a 384-well clear bottom poly-D-lysine coated plate. The following day the screening compound-induced calcium activity was assayed on the FLIPR^Tetra. The drug plates were prepared in 384-well microplates using the EP3 and the MultiPROBE robotic liquid handling systems. Compounds were tested at concentrations ranging from 0.61 to 10,000 nM. Results are expressed as EC50 (nM) and % efficacy values.

SMILES | Emax [%] | EC50 [nM]
CCN(CC(=O)O)C(=O)[C@H](CC(C)C)OC(=O)Nc1ccc(C(F)(F)F)cc1 [Compound 26, {Ethyl[(2S)-4-methyl-2-({[4-(trifluoromethyl)phenyl]carbamoyl}oxy)pentanoyl]amino}acetic acid] | 98 | 0.29
CC(C)C[C@H](OC(=O)Nc1ccc(Br)cc1)C(=O)N(C)CCOS(=O)(=O)O [Compound 27, (2S)-4-Methyl-1-{methyl[2-(sulfooxy)ethyl]amino}-1-oxopentan-2-yl (4-bromophenyl)carbamate] | 99 | 8.7
CC(C)C[C@H](OC(=O)Nc1ccc(C(F)(F)F)cc1)C(=O)NCS(=O)(=O)O [Compound 28, ({(2S)-4-methyl-2-[({[4-(trifluoromethyl)phenyl]amino}carbonyl)oxy]pentanoyl}amino)methanesulfonic acid] | 85 | 4.3
CCCN(CC(=O)OC(C)(C)C)C(=O)[C@H](CC(C)C)OC(=O)Nc1ccc(C(F)(F)F)cc1 [Compound 29, tert-Butyl [{(2S)-4-methyl-2-[({[4-(trifluoromethyl)phenyl]amino}carbonyl)oxy]pentanoyl}(propyl)amino]acetate] | 101 | 11.4
CC(C)C[C@H](OC(=O)Nc1ccc(C(F)(F)F)cc1)C(=O)N(CC(=O)OC(C)(C)C)C(C)C [Compound 30, tert-Butyl (Isopropyl{(2S)-4-methyl-2-[({[4-(trifluoromethyl)phenyl]amino}carbonyl)oxy]pentanoyl}amino)acetate] | 76 | 301
CCN(Cc1nnn[nH]1)C(=O)[C@H](CC(C)C)OC(=O)Nc1ccc(Br)cc1 [Compound 31, (1S)-1-{[ethyl(1H-tetrazol-5-ylmethyl)amino]carbonyl}-3-methylbutyl (4-bromophenyl)carbamate] | 95 | 0.3
CCN(Cc1nnn[nH]1)C(=O)[C@H](CC(C)C)OC(=O)Nc1ccc(C(F)(F)F)cc1 [Compound 32, (1S)-1-{[ethyl(1H-tetrazol-5-ylmethyl)amino]carbonyl}-3-methylbutyl [4-(trifluoromethyl)phenyl]carbamate] | 100 | 0.66
CC(C)C[C@H](OC(=O)Nc1ccc(Br)cc1)C(=O)NCCNC(=O)OC(C)(C)C [Compound 33, (1S)-1-[({2-[(tert-butoxycarbonyl)amino]ethyl}amino)carbonyl]-3-methylbutyl (4-bromophenyl)carbamate] | 103 | 397
CC(C)(C)OC(=O)CNC(=O)[C@H](Cc1ccccc1)OC(=O)Nc1ccc(Br)cc1 [Compound 34, tert-Butyl {[(2S)-2-({[(4-bromophenyl)amino]carbonyl}oxy)-3-phenylpropanoyl]amino}acetate] | 103 | 106
O=C(Nc1ccc(Br)cc1)O[C@@H](Cc1ccccc1)C(=O)NCc1nnn[nH]1 [Compound 35, (1S)-1-benzyl-2-oxo-2-[(1H-tetrazol-5-ylmethyl)amino]ethyl (4-bromophenyl)carbamate] | 103 | 0.83
CN(CC(=O)OC(C)(C)C)C(=O)[C@H](Cc1ccccc1)OC(=O)Nc1ccc(Br)cc1 [Compound 36, tert-Butyl {[(2S)-2-({[(4-bromophenyl)amino]carbonyl}oxy)-3-phenylpropanoyl](methyl)amino}acetate] | 105 | 11.7
CCCN(CC(=O)O)C(=O)[C@H](CC(C)C)OC(=O)Nc1ccc(C(F)(F)F)cc1 [Compound 37, [{(2S)-4-methyl-2-[({[4-(trifluoromethyl)phenyl]amino}carbonyl)oxy]pentanoyl}(propyl)amino]acetic acid] | 102 | 1.2
CC(C)C[C@H](OC(=O)Nc1ccc(C(F)(F)F)cc1)C(=O)N(CC(=O)O)C(C)C [Compound 38, (Isopropyl{(2S)-4-methyl-2-[({[4-(trifluoromethyl)phenyl]amino}carbonyl)oxy]pentanoyl}amino)acetic acid] | 107 | 0.66
CC(C)C[C@H](OC(=O)Nc1ccc(Br)cc1)C(=O)NCCN [Compound 39, (1S)-1-{[(2-aminoethyl)amino]carbonyl}-3-methylbutyl (4-bromophenyl) carbamate] | 89 | 78
O=C(O)CNC(=O)[C@H](Cc1ccccc1)OC(=O)Nc1ccc(Br)cc1 [Compound 40, {[(2S)-2-({[(4-bromophenyl)amino]carbonyl}oxy)-3-phenylpropanoyl]amino}acetic acid] | 95 | 1.3
CN(CC(=O)O)C(=O)[C@H](Cc1ccccc1)OC(=O)Nc1ccc(Br)cc1 [Compound 41, {[(2S)-2-({[(4-Bromophenyl)amino]carbonyl}oxy)-3-phenylpropanoyl](methyl)amino}acetic acid] | 98 | 0.41
CC(C)C[C@H](OC(=O)Nc1ccc(Br)cc1)C(=O)NCCNS(=O)(=O)N(C)C [Compound 42, (1S)-1-{[(2-{[(Dimethylamino)sulfonyl]amino}ethyl)amino]carbonyl}-3-methylbutyl (4-bromophenyl)carbamate] | 99 | 125
CC(C)C[C@H](OC(=O)Nc1ccc(C(F)(F)F)cc1)C(=O)OC(C)(C)C [Intermediate 2, tert-Butyl (2S)-4-Methyl-2-({[4-(trifluoromethyl)phenyl]carbamoyl}oxy)pentanoate] | 56 | 10000
CC(C)(C)OC(=O)[C@H](Cc1ccccc1)OC(=O)Nc1ccc(Br)cc1 [Intermediate 2a, tert-Butyl (2S)-2-({[(4-bromophenyl)amino]carbonyl}oxy)-3-phenyl propanoate] | 55 | 2190
CC(C)C[C@H](OC(=O)Nc1ccc(Br)cc1)C(=O)O [Intermediate 3, (2S)-2-{[(4-Bromophenyl)carbamoyl]oxy}-4-methylpentanoic acid] | 85 | 8.6
CC(C)C[C@H](OC(=O)Nc1ccc(C(F)(F)F)cc1)C(=O)O [Intermediate 4, (2S)-4-Methyl-2-({[4-(Trifluoromethyl)phenyl]carbamoyl}oxy)pentanoic acid] | 88 | 24.7
O=C(Nc1ccc(Br)cc1)O[C@@H](Cc1ccccc1)C(=O)O [Intermediate 4a, (2S)-2-({[(4-bromophenyl)amino]carbonyl}oxy)-3-phenylpropanoic acid] | 103 | 1.43
